# Active and inactive are the calls of the source. No cut-off for these calls is given here.
# Legend:
# [1] = test system: Staphylococcus aureus; test: Antibacterial activity against Staphylococcus aureus at 1000 ug/disc; format: functional
# [2] = test system: Bacillus subtilis; test: Antibacterial activity against Bacillus subtilis at 1000 ug/disk; format: functional; settings: read-out: IZ
# [3] = test system: Escherichia coli; test: Antibacterial activity against Escherichia coli at 1000 ug/disk; format: functional
# [4] = test system: Salmonella typhimurium; test: Antibacterial activity against Salmonella enterica subsp. enterica serovar Typhimurium at 1000 ug/disc; format: functional, organism-based
SMILES,inhibition zone (IZ) [1],zone of inhibition at 1000 µg/disc [2] [mm],inhibition zone (IZ) [3],inhibition zone (IZ) [4],zone of inhibition at 1000 µg/disc ([1]; read-out: IZ) [mm],zone of inhibition at 1000 µg/disc ([3]; read-out: IZ) [mm]
O=C(/C=C/c1coc2ccccc2c1=O)c1c(O)c2ccccc2oc1=O,inactive,12,inactive,inactive,,
O=c1oc2ccccc2c(O)c1C1=NN(c2ccccc2)C(c2cnn(-c3ccccc3)c2-c2ccccc2O)C1 (configuration not stated),inactive,10,inactive,inactive,,
O=c1oc2ccccc2c(O)c1C1=NNC(c2cn[nH]c2-c2ccccc2O)C1 (configuration not stated),,25,,inactive,20,12

# Reference: ChEMBL document CHEMBL3045283, “Synthesis and biological activity of heterocycles from chalcone” (2008)
